System: HOP-62 complex spheroids with HUVEC/MSC, viability
Assay: Anticancer human tumor HOP-62 cell line growth inhibition [RAS];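 also: spheroids exposed to agents for seven days before readout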;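 as to viability, T/C: 100% = DMSO vehicle control viability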
Details: for IC50: curve of first compound; for viability, T/C: stronger effect = lower value
Description: RAS pathway inhibitors in Combinations in Complex Spheroids
A high-throughput screen of multi-cell type tumor spheroids was designed to identify active combinations of RAS pathway inhibitors and targeted small molecules. Complex spheroids include a stromal component modeled by human endothelial cells (HUVEC) and fibroblasts modeled by human mesenchymal stem cells (MSCs). The concentration ranges selected for each drug and investigational agent were based upon clinically achievable concentrations if the clinical Cmax of the agent was known.
Compounds. The drugs and investigational agents: abemaciclib (NSC768073), cobimetinib (NSC768068), divarasib (GDC6063, NSC841802), docetaxel (NSC628503), GDC-1971 (RLY-1971, NSC841576), gemcitabine (NSC613327), inavolisib (NSC800729), ipatasertib (NSC767898), KB-0742 (NSC834161), MRTX-1133 (NSC836407), osimertinib (NSC779217), RMC-4630 (NSC839698), RMC-6236 (NSC851965), RMC-6291 (NSC852671), Ro-3306 (NSC812927), sapanisertib (NSC764658), SN-38 (NSC673596), staurosporine (NSC755774), SY5609 (NSC837396), and tovorafenib (DAY101, NSC766906), were obtained from the National Cancer Institute (NCI) Developmental Therapeutics Program Chemical Repository. The FDA-approved anticancer drug set is available from the NCI Developmental Therapeutics Program. […] The stock solutions were prepared in dimethyl sulfoxide (DMSO, Sigma-Aldrich, St. Louis, MO, cat. D2650) at 800-fold the tested concentration and stored at -70 degrees C prior to their use. All drugs and investigational agents were tested over a range starting from a high concentration at or near the clinical Cmax and decreasing in half-log increments. If the clinical Cmax for an agent had not been determined, the highest concentration tested was 10 microM.
Cell Culture. All cells were maintained in an incubator at 37 degrees C and 5% CO2 with 95% humidity. The PDC lines were cultured according to standard operating procedures established by the NCI PDMR. All PDCs were thawed and cultured in Matrigel-coated flasks prepared with a working solution of 1X Ham's F-12 nutrient mix, without supplementation (Invitrogen, Waltham, MA, cat. 11765054), 100 U/mL penicillin-streptomycin (Invitrogen, cat. 15140122), and 2.5% Matrigel (Corning Inc., Corning, NY, cat. 354248) for the first three passages. The 362531-283-R-J2-PDC and 782815-120-R-J1-PDC lines were cultured in 6C/Colon 1B media, which includes advanced DMEM/F-12 (Thermo Fisher Scientific, cat. 12634028), 10 mM HEPES (Thermo Fisher Scientific, cat. 15630080), 1X GlutaMAX supplement (Thermo Fisher Scientific, cat. 35050061), 0.1 mg/mL primocin (InvivoGen, San Diego, CA, cat. ant-pm-2), 10% defined fetal bovine serum, heat inactivated (HyClone Laboratories Inc., Logan, UT, cat. SH30070.03HI), 50% L-WRN conditioned media (ATCC, cat. CRL-3276), 1.25 mM N-Acetyl-L-cysteine (Sigma-Aldrich, cat. A9165), 10 mM nicotinamide (Sigma-Aldrich, cat. N0636), 1X B-27 supplement (Thermo Fisher Scientific, cat. 17504044), 1X N-2 supplement (Thermo Fisher Scientific, cat. 17502048), 50 ng/mL human EGF (Thermo Fisher Scientific, cat. PHG0311), and 10 microM Y-27632 dihydrochloride (Tocris Bioscience, cat. 1254). The K12877-001-R-J1-PDC line was cultured in 6I media, which includes all 6C/Colon 1B media plus 10 ng/mL human FGF-10 (PeproTech, cat. 100-26), 1 ng/mL human FGF-2 (PeproTech, cat. 100-18B), 1 µM prostaglandin E2 (Tocris Bioscience, cat. 2296), […] hydrocortisone (Sigma-Aldrich, cat. H4001), and […] bovine insulin (Sigma-Aldrich, cat. I6634). The K86415-001-R-J1-PDC line was cultured in 6D media, which includes all 6C/Colon 1B media components minus the L-WRN conditioned media. The 485176-168-R4-J1-PDC was cultured in PANC media, which includes all 6C/Colon 1B media plus 100 ng/mL human FGF-10 (PeproTech, cat. 100-26), 500 nM SB-431542 (Selleckchem, cat. S1067), and 10 nM gastrin (Tocris Bioscience, cat. 3006). […]

`CC(C)NCC(C(=O)N1CCN(c2ncnc3c2C(C)CC3O)CC1)c1ccc(Cl)cc1` (configuration not stated) + CCn1c(-c2cccnc2C(C)OC)c2c3cc(ccc31)N1CCOC(CC(NC(=O)C(C(C)C)N(C)C(=O)C3(F)CCN(C(=O)C#CC(C)(C)N(C)C)CC3)C(=O)N3CCCC(N3)C(=O)OCC(C)(C)C2)C1 was tested. Which IC50 (second compound 0.000949 µM) did it give?
The IC50 was 3570 nM.

What about the IC50 (second compound 0.003 µM) of the same compound?
The IC50 was 2210 nM.

And the IC50 (second compound 0.00949 µM)?
Its IC50 is 1650 nM.

What about the IC50 (second compound 0.03 µM) of the same compound?
Its IC50 is 1120 nM.

What about the IC50 (second compound 0.0949 µM) of the same compound?
The IC50 was 1170 nM.

What about the IC50 (second compound 0.3 µM) of the same compound?
Its IC50 is 742 nM.

What about the viability, T/C (second compound 0.000949 µM, first compound 0.0316 µM) of the same compound?
The viability, T/C was 98.8%.

And the viability, T/C (second compound 0.000949 µM, first compound 0.1 µM)?
Its viability, T/C is 119%.

And the viability, T/C (second compound 0.000949 µM, first compound 0.316 µM)?
Its viability, T/C is 65.4%.

And the viability, T/C (second compound 0.000949 µM, first compound 1 µM)?
The viability, T/C was 76.4%.

And the viability, T/C (second compound 0.000949 µM, first compound 3.16 µM)?
Its viability, T/C is 61.6%.

And the viability, T/C (second compound 0.000949 µM, first compound 10 µM)?
Its viability, T/C is 20.3%.

What about the viability, T/C (second compound 0.003 µM, first compound 0.0316 µM) of the same compound?
The viability, T/C was 101%.

And the viability, T/C (second compound 0.003 µM, first compound 0.1 µM)?
Its viability, T/C is 105%.

What about the viability, T/C (second compound 0.003 µM, first compound 0.316 µM) of the same compound?
The viability, T/C was 65.3%.

What about the viability, T/C (second compound 0.003 µM, first compound 1 µM) of the same compound?
Its viability, T/C is 67.7%.

And the viability, T/C (second compound 0.003 µM, first compound 3.16 µM)?
The viability, T/C was 47.1%.

What about the viability, T/C (second compound 0.003 µM, first compound 10 µM) of the same compound?
Its viability, T/C is 21.2%.

And the viability, T/C (second compound 0.00949 µM, first compound 0.0316 µM)?
Its viability, T/C is 81.7%.

What about the viability, T/C (second compound 0.00949 µM, first compound 0.1 µM) of the same compound?
The viability, T/C was 100%.

And the viability, T/C (second compound 0.00949 µM, first compound 0.316 µM)?
Its viability, T/C is 80.1%.

What about the viability, T/C (second compound 0.00949 µM, first compound 1 µM) of the same compound?
The viability, T/C was 58.9%.

What about the viability, T/C (second compound 0.00949 µM, first compound 3.16 µM) of the same compound?
The viability, T/C was 38.5%.

And the viability, T/C (second compound 0.00949 µM, first compound 10 µM)?
Its viability, T/C is 22%.

What about the viability, T/C (second compound 0.03 µM, first compound 0.0316 µM) of the same compound?
The viability, T/C was 122%.

And the viability, T/C (second compound 0.03 µM, first compound 0.1 µM)?
The viability, T/C was 83.4%.

What about the viability, T/C (second compound 0.03 µM, first compound 0.316 µM) of the same compound?
The viability, T/C was 72%.

And the viability, T/C (second compound 0.03 µM, first compound 1 µM)?
The viability, T/C was 61.8%.

What about the viability, T/C (second compound 0.03 µM, first compound 3.16 µM) of the same compound?
The viability, T/C was 28.3%.

What about the viability, T/C (second compound 0.03 µM, first compound 10 µM) of the same compound?
The viability, T/C was 23%.

And the viability, T/C (second compound 0.0949 µM, first compound 0.0316 µM)?
Its viability, T/C is 79%.

And the viability, T/C (second compound 0.0949 µM, first compound 0.1 µM)?
Its viability, T/C is 80.4%.

And the viability, T/C (second compound 0.0949 µM, first compound 0.316 µM)?
The viability, T/C was 69%.

What about the viability, T/C (second compound 0.0949 µM, first compound 1 µM) of the same compound?
The viability, T/C was 56.2%.

And the viability, T/C (second compound 0.0949 µM, first compound 3.16 µM)?
Its viability, T/C is 25.5%.

And the viability, T/C (second compound 0.0949 µM, first compound 10 µM)?
The viability, T/C was 21.1%.

And the viability, T/C (second compound 0.3 µM, first compound 0.0316 µM)?
Its viability, T/C is 73.2%.

And the viability, T/C (second compound 0.3 µM, first compound 0.1 µM)?
The viability, T/C was 78.9%.

And the viability, T/C (second compound 0.3 µM, first compound 0.316 µM)?
The viability, T/C was 59.3%.

And the viability, T/C (second compound 0.3 µM, first compound 1 µM)?
The viability, T/C was 47%.

What about the viability, T/C (second compound 0.3 µM, first compound 3.16 µM) of the same compound?
Its viability, T/C is 26.4%.

What about the viability, T/C (second compound 0.3 µM, first compound 10 µM) of the same compound?
Its viability, T/C is 16.6%.

Reference: PubChem BioAssay AID2060892 (Molecular Pharmacology Branch, DTP, NCI, 2025)
